Results reported in the NIST ThermoML archive (doi:10.1016/j.jct.2010.11.007).
Several values for one entry are separate records, joined by “and”; a condition that tells them apart may be missing. Equal entries are not always repeated.

Legend:
[1] = refractive index (Na D-line) (dimensionless); conditions: 101.33 kPa, Liquid, Standard Abbe refractometry
[2] = 101.33 kPa, Liquid; for speed of sound: Sing-around technique in a fixed-path interferometer; for mass density: Vibrating tube method
[3] = xn = mol fraction of the nth substance listed; conditions: Liquid, x2 = 0; for speed of sound: Sing-around technique in a fixed-path interferometer; for mass density: Vibrating tube method
[4] = refractive index (Na D-line) (dimensionless); xn = mol fraction of the nth substance listed; conditions: 101 kPa, Liquid, Standard Abbe refractometry, x2 = 0

C=CC(C)(O)CCC=C(C)C (stereo unspecified) [3,7-dimethyl-1,6-octadien-3-ol]
Conditions | mass density, [2] [kg/m3] | refractive index, [1] | speed of sound, [2] [m/s]
283.15 K | 869.39 | 1.46659 and 1.4666 | 1370.3
298.15 K | 857 | 1.45946 | 1315.1
313.15 K | 844.29 | 1.45215 | 1260.8
328.15 K | 831.31 | 1.44473 | 1207.6

CCCO [propan-1-ol]
Conditions | mass density, [2] [kg/m3] | refractive index, [1] | speed of sound, [2] [m/s]
283.15 K | 811.52 | 1.38906 | 1257.9
298.15 K | 799.56 | 1.38288 | 1206.3
313.15 K | 787.33 | 1.3766 | 1156.8
328.15 K | 774.69 | 1.37015 | 1106.8

CCCO [propan-1-ol] + C=CC(C)(O)CCC=C(C)C
[3]
Conditions | mass density, 101 kPa [kg/m3] | mass density, 20000 kPa [kg/m3] | mass density, 25000 kPa [kg/m3] | mass density, 30000 kPa [kg/m3] | mass density, 35000 kPa [kg/m3] | mass density, 40000 kPa [kg/m3] | speed of sound, 101 kPa [m/s]
283.15 K | 811.52 | 825.3 | 828.5 | 831.5 | 834.5 | 837.4 | 1258
298.15 K | 799.56 | 814.3 | 817.8 | 821 | 824.1 | 827.3 | 1206.3
313.15 K | 787.34 | 803.3 | 806.9 | 810.4 | 813.8 | 817 | 1156.8
328.15 K | 774.69 | 792.1 | 795.9 | 799.6 | 803.2 | 806.6 | 1106.8

[4]
Conditions | refractive index
283.15 K | 1.38906
298.15 K | 1.38288
313.15 K | 1.3766
328.15 K | 1.37015
